What follows are compounds tested on T47D (PIK3CA H1047R) cells (assay: pS473 AKT assay with 2.5% FBS, T47D cells). Settings: Homo sapiens, pSer473 AKT, DMEM with 2.5% FBS, 2 h treatment, read-out: T47D_IC50.
Type: cell-based
Method: Example B. pS473 AKT Assay Protocol with 2.5% FBS
T47D (PIK3CA H1047R) cells were cultured using 10-cm petri dishes with recommended medium plus 10% fetal bovine serum. One day before the assay, cells were seeded in 96-well plates. After overnight incubation, the medium was changed to DMEM with 2.5% fetal bovine serum (FBS) and the cells were treated with different concentrations of the compounds for 2 h. Cells were then fixed using 4% paraformaldehyde at room temperature for 20 min. Aspirate 4% paraformaldehyde, and wash cells using 1× regular phosphate buffered saline 3 times, 5 min each. Aspirate any residual phosphate buffered saline and block cells using 10% goat serum containing 1% bovine serum albumin and 0.3% Triton X-100 at room temperature for 1 h. Without any additional washing, primary antibodies (rabbit anti-pSer473 AKT) were diluted using blocking buffer and added at a final volume of 50 microliter per well. Keep assay plates with primary antibodies overnight at 4° C. Wash cells using 1× regular phosphate buffered saline 3 times, 5 min each. After the final wash, incubate cells with horseradish peroxidase-conjugated secondary antibodies (goat Anti-rabbit IgG) diluted using the same blocking buffer at room temperature for 1 h. Wash cells thoroughly using 1× regular phosphate buffered saline 3 times, 5 min each. Aspirate any residual phosphate buffered saline. Add Super-Signal ELISA Pico Chemiluminescent Substrate at a final volume of 100 microliter per well. Read plates on i3x Multi-Mode Microplate Reader and calculate IC50 values using GraphPad Prism software.

Row | IC50 [µM] | Compound
1 | < 1 | Cc1cc(C(C)Nc2ccc(Cl)nc2-c2ncn(C)n2)c2c(c1)c(=O)n(C)c1c2cnn1C1CN(C2CC2)C1 (stereo not shown) [Compound 90, 9-(1-((6-chloro-2-(1-methyl-1H-1,2,4-triazol-3-yl)pyridin-3-yl)amino)ethyl)-3-(1-cyclopropylazetidin-3-yl)-4,7-dimethyl-3,4-dihydro-5H-pyrazolo[3,4-c]isoquinolin-5-one]
2 | < 1 | Cc1cc(C(C)Nc2ccc(Cl)nc2-c2ncn(C)n2)c2c(c1)c(=O)n(C)c1c2cnn1C1CN(CC(C)(C)O)C1 (stereo not shown) [Compound 93, 9-(1-((6-chloro-2-(1-methyl-1H-1,2,4-triazol-3-yl)pyridin-3-yl)amino)ethyl)-3-(1-(2-hydroxy-2-methylpropyl)azetidin-3-yl)-4,7-dimethyl-3,4-dihydro-5H-pyrazolo[3,4-c]isoquinolin-5-one]
3 | < 1 | Cc1cc(C(C)Nc2ccc(Cl)nc2-c2ncn(C)n2)c2c(c1)c(=O)n(C)c1c2cnn1C1CN(CC#N)C1 (stereo not shown) [Compound 95, 2-(3-(9-(1-((6-chloro-2-(1-methyl-1H-1,2,4-triazol-3-yl)pyridin-3-yl)amino)ethyl)-4,7-dimethyl-5-oxo-4,5-dihydro-3H-pyrazolo[3,4-c]isoquinolin-3-yl)azetidin-1-yl)acetonitrile]
4 | < 1 | COC(=O)N1CC(n2ncc3c4c(C(C)Nc5ccc(Cl)nc5-c5ncn(C)n5)cc(C)cc4c(=O)n(C)c32)C1 (stereo not shown) [Compound 98, methyl 3-(9-(1-((6-chloro-2-(1-methyl-1H-1,2,4-triazol-3-yl)pyridin-3-yl)amino)ethyl)-4,7-dimethyl-5-oxo-4,5-dihydro-3H-pyrazolo[3,4-c]isoquinolin-3-yl)azetidine-1-carboxylate]
5 | < 1 | Cc1cc(C(C)Nc2ccc(Cl)nc2-c2ncn(C)n2)c2c(c1)c(=O)n(C)c1c2cnn1C1CN(S(C)(=O)=O)C1 (stereo not shown) [Compound 99, 9-(1-((6-chloro-2-(1-methyl-1H-1,2,4-triazol-3-yl)pyridin-3-yl)amino)ethyl)-4,7-dimethyl-3-(1-(methylsulfonyl)azetidin-3-yl)-3,4-dihydro-5H-pyrazolo[3,4-c]isoquinolin-5-one]
6 | < 1 | CC(=O)N1CC(n2ncc3c4c(C(C)Nc5ccc(Cl)nc5-c5ccc(=O)n(C)c5)cc(C)cc4c(=O)n(C)c32)C1 (stereo not shown) [Compound 100, 3-(1-Acetylazetidin-3-yl)-9-(1-((6-chloro-1′-methyl-6′-oxo-1′,6′-dihydro-[2,3′-bipyridin]-3-yl)amino)ethyl)-4,7-dimethyl-3,4-dihydro-5H-pyrazolo[3,4-c]isoquinolin-5-one]
7 | < 1 | CNC(=O)c1ccc(-c2nc(Cl)ccc2NC(C)c2cc(C)cc3c(=O)n(C)c4c(cnn4C4CN(C(C)=O)C4)c23)cn1 (stereo not shown) [Compound 101, 3-((1-(3-(1-acetylazetidin-3-yl)-4,7-dimethyl-5-oxo-4,5-dihydro-3H-pyrazolo[3,4-c]isoquinolin-9-yl)ethyl)amino)-6-chloro-N-methyl-[2,3′-bipyridine]-6′-carboxamide]
8 | 1 to 5 | CC(=O)N1CC(n2ncc3c4c(C(C)Nc5ccc(Cl)nc5-c5ncn(CCO)n5)cc(C)cc4c(=O)n(C)c32)C1 (stereo not shown) [Compound 102, 3-(1-acetylazetidin-3-yl)-9-(1-((6-chloro-2-(1-(2-hydroxyethyl)-1H-1,2,4-triazol-3-yl)pyridin-3-yl)amino)ethyl)-4,7-dimethyl-3,4-dihydro-5H-pyrazolo[3,4-c]isoquinolin-5-one]
9 | < 1 | Cc1cc(C(C)Nc2ccc(Cl)nc2-c2ncn(C)n2)c2c(c1)c(=O)n(C)c1c2cnn1C1CN(C(=O)CO)C1 (stereo not shown) [Compound 103, 9-(1-((6-Chloro-2-(1-methyl-1H-1,2,4-triazol-3-yl)pyridin-3-yl)amino)ethyl)-3-(1-(2-hydroxyacetyl)azetidin-3-yl)-4,7-dimethyl-3,4-dihydro-5H-pyrazolo[3,4-c]isoquinolin-5-one]

The next lines start with the compound.

Row | Compound | IC50 [µM]
10 | CNC(=O)c1ccc(-c2cc(Cl)ccc2NC(C)c2cc(C)cc3c(=O)n(C)c4c(cnn4C4CN(C)C4)c23)cn1 (stereo not shown) [Compound 86, 5-(5-chloro-2-((1-(4,7-dimethyl-3-(1-methylazetidin-3-yl)-5-oxo-4,5-dihydro-3H-pyrazolo[3,4-c]isoquinolin-9-yl)ethyl)amino)phenyl)-N-methylpicolinamide] | < 1
11 | Cc1cc(C(C)Nc2ccc(Cl)nc2-c2ccc3c(c2)CN(C)C3=O)c2c(c1)c(=O)n(C)c1c2cnn1C1CN(C)C1 (stereo not shown) [Compound 87, 9-(1-((6-chloro-2-(2-methyl-1-oxoisoindolin-5-yl)pyridin-3-yl)amino)ethyl)-4,7-dimethyl-3-(1-methylazetidin-3-yl)-3,4-dihydro-5H-pyrazolo[3,4-c]isoquinolin-5-one] | < 1
12 | Cc1cc(C(C)Nc2ccc(Cl)nc2-c2ccc3c(cnn3C)c2)c2c(c1)c(=O)n(C)c1c2cnn1C1CN(C)C1 (stereo not shown) [Compound 88, 9-(1-((6-chloro-2-(1-methyl-1H-indazol-5-yl)pyridin-3-yl)amino)ethyl)-4,7-dimethyl-3-(1-methylazetidin-3-yl)-3,4-dihydro-5H-pyrazolo[3,4-c]isoquinolin-5-one] | < 1
13 | Cc1cc(C(C)Nc2ccc(Cl)nc2-c2ncn(C)n2)c2c(c1)c(=O)n(C)c1c2cnn1C1CN(CCO)C1 (stereo not shown) [Compound 89, 9-(1-((6-chloro-2-(1-methyl-1H-1,2,4-triazol-3-yl)pyridin-3-yl)amino)ethyl)-3-(1-(2-hydroxyethyl)azetidin-3-yl)-4,7-dimethyl-3,4-dihydro-5H-pyrazolo[3,4-c]isoquinolin-5-one] | < 1
14 | Cc1cc(C(C)Nc2ccc(Cl)nc2-c2ncn(C)n2)c2c(c1)c(=O)n(C)c1c2cnn1C1CN(C[C@H](C)O)C1 (stereo partly drawn) [Compound 91, 9-(1-((6-chloro-2-(1-methyl-1H-1,2,4-triazol-3-yl)pyridin-3-yl)amino)ethyl)-3-(1-((S)-2-hydroxypropyl)azetidin-3-yl)-4,7-dimethyl-3,4-dihydro-5H-pyrazolo[3,4-c]isoquinolin-5-one] | < 1
15 | Cc1cc(C(C)Nc2ccc(Cl)nc2-c2ncn(C)n2)c2c(c1)c(=O)n(C)c1c2cnn1C1CN(C[C@@H](C)O)C1 (stereo partly drawn) [Compound 92, 9-(1-((6-chloro-2-(1-methyl-1H-1,2,4-triazol-3-yl)pyridin-3-yl)amino)ethyl)-3-(1-((R)-2-hydroxypropyl)azetidin-3-yl)-4,7-dimethyl-3,4-dihydro-5H-pyrazolo[3,4-c]isoquinolin-5-one] | < 1
16 | Cc1cc(C(C)Nc2ccc(Cl)nc2-c2ncn(C)n2)c2c(c1)c(=O)n(C)c1c2cnn1C1CN(CC(F)F)C1 (stereo not shown) [Compound 94, 9-(1-((6-chloro-2-(1-methyl-1H-1,2,4-triazol-3-yl)pyridin-3-yl)amino)ethyl)-3-(1-(2,2-difluoroethyl)azetidin-3-yl)-4,7-dimethyl-3,4-dihydro-5H-pyrazolo[3,4-c]isoquinolin-5-one] | < 1
17 | Cc1cc(C(C)Nc2ccc(Cl)nc2-c2ncn(C)n2)c2c(c1)c(=O)n(C)c1c2cnn1C1CN(CCC#N)C1 (stereo not shown) [Compound 96, 3-(3-(9-(1-((6-chloro-2-(1-methyl-1H-1,2,4-triazol-3-yl)pyridin-3-yl)amino)ethyl)-4,7-dimethyl-5-oxo-4,5-dihydro-3H-pyrazolo[3,4-c]isoquinolin-3-yl)azetidin-1-yl)propanenitrile] | < 1
18 | CC(=O)N1CC(n2ncc3c4c(C(C)Nc5ccc(Cl)nc5-c5ncn(C)n5)cc(C)cc4c(=O)n(C)c32)C1 (stereo not shown) [Compound 97, 3-(1-Acetylazetidin-3-yl)-9-(1-((6-chloro-2-(1-methyl-1H-1,2,4-triazol-3-yl)pyridin-3-yl)amino)ethyl)-4,7-dimethyl-3,4-dihydro-5H-pyrazolo[3,4-c]isoquinolin-5-one] | < 1
19 | Cc1cc(C(C)Nc2ccc(Cl)nc2-c2ncn(C)n2)c2c(c1)c(=O)n(C)c1c2cnn1C1CN(C(=O)CN(C)C)C1 (stereo not shown) [Compound 104, 9-(1-((6-Chloro-2-(1-methyl-1H-1,2,4-triazol-3-yl)pyridin-3-yl)amino)ethyl)-3-(1-(dimethylglycyl)azetidin-3-yl)-4,7-dimethyl-3,4-dihydro-5H-pyrazolo[3,4-c]isoquinolin-5-one] | < 1
20 | [2H]C([2H])([2H])n1c(=O)c2cc(C)cc(C(C)Nc3ccc(Cl)nc3-c3ncn(C)n3)c2c2cnn([C@H]3CCN(C)C3)c21 (stereo partly drawn) [Compound 105, 9-(1-((6-Chloro-2-(1-methyl-1H-1,2,4-triazol-3-yl)pyridin-3-yl)amino)ethyl)-7-methyl-4-(methyl-d3)-3-((S)-1-methylpyrrolidin-3-yl)-3,4-dihydro-5H-pyrazolo[3,4-c]isoquinolin-5-one] | < 1
21 | Cc1cc(C(C)Nc2ccc(Cl)nc2-c2cnn(C)c2)c2c(c1)c(=O)n(C)c1c2cnn1CC1CCN(CC(F)F)CC1 (stereo not shown) [Compound 106, 9-(1-((6-Chloro-2-(1-methyl-1H-pyrazol-4-yl)pyridin-3-yl)amino)ethyl)-3-((1-(2,2-difluoroethyl)piperidin-4-yl)methyl)-4,7-dimethyl-3,4-dihydro-5H-pyrazolo[3,4-c]isoquinolin-5-one] | < 1
22 | CC(=O)N1CCC(Cn2ncc3c4c(C(C)Nc5ccc(Cl)nc5-c5cnn(C)c5)cc(C)cc4c(=O)n(C)c32)CC1 (stereo not shown) [Compound 107, 3-((1-acetylpiperidin-4-yl)methyl)-9-(1-((6-chloro-2-(1-methyl-1H-pyrazol-4-yl)pyridin-3-yl)amino)ethyl)-4,7-dimethyl-3,4-dihydro-5H-pyrazolo[3,4-c]isoquinolin-5-one] | < 1
